Test results as given in patent US20220289787A1, “DIMER COMBINATIONS AND USES THEREOF” (Ripple Therapeutics Corporation, priority 2019, published 2022).

Assay: Drug release from heat-molded pellets of Compound 1 in PBS at 37° C. (HPLC)
Format: physicochemical
Conditions: FIG. 2
Experimental: Heat-molded pellets from Compound 1 (^˜1 mm×1 mm) were placed in 20 mL glass vials and 2 mL of the release buffer phosphate buffered saline (PBS) was added.

## C[C@@H]1C[C@H]2[C@@H]3CCC4=CC(=O)C=C[C@]4(C)[C@@]3(F)[C@@H](O)C[C@]2(C)[C@@]1(O)C(=O)COC(=O)OCCOCCOCCOC(=O)OCC(=O)[C@@]1(O)[C@H](C)C[C@H]2[C@@H]3CCC4=CC(=O)C=C[C@]4(C)[C@@]3(F)[C@@H](O)C[C@@]21C [Compound 1, dexamethasone-triethylene glycol-dexamethasone]
heat-molded pellets ~1 mm×1 mm
  dexamethasone release profile (cumulative drug release): zero-order (e.g., near zero order) release
heat-molded pellets
  duration of zero-order release: at least 100 days
